The text below walks through data of patent US20260355239A1, “COMBINATION OF A T CELL THERAPY AND CONTINUOUS OR INTERMITTENT DGK INHIBITOR DOSING” (Juno Therapeutics, Inc., priority 2022, published 2026).

Experiment [1] relates to Human venous whole blood. Briefly: Human Whole Blood IFN-γ Assay. As to conditions: anti-CD3 + anti-CD28, 24 h, normalized to 3 μM reference compound, read-out: INFg Whole Blood Normalized-Agonist EC50. The format is cell-based. How it is done:
9. Human Whole Blood IFN-γ Assay
Human venous whole blood (22.5 μL per well), obtained from healthy donors, was pre-treated with compounds for one hour at 37 °C in a humidified 95% air/5% CO2 incubator. The blood was stimulated with 2.5 μL anti-human CD3 and anti-CD28 mAb at a final concentration of 1 μg/mL each for 24 hours at 37 °C. IFN-γ in the supernatants was measured using AlphLISA kit (Cat #AL217).

The subject of experiment [2] is Nalm6 leukemia tumor cells. Briefly: In vivo anti-tumor effect with CAR T cells, Nalm6-rFluc NSG mice (Example 10). How it is done:
The in vivo anti-tumor effects of a continuous Compound 17 dosing regimen in combination with anti-CD19 CAR T cells were assessed in a second CD19-expressing tumor model.

Experiment [3] relates to anti-CD19 CAR-T cells with K562.CD19, Granta-519 and Raji cells. Briefly: Cytokine production of chronically stimulated, concurrently treated CAR-T cells, 2D co-culture. The format is cell-based, human. As to conditions: concurrent treatment during chronic stimulation; 2D re-challenge, 48 h. The method, then: To simulate conditions of chronic stimulation, approximately 20,000 anti-CD19 CAR-expressing T cells of a combined CAR-T cell composition produced as described in Example 2 from two healthy adult donors were incubated with 30 µg/mL of plate-bound CAR-specific anti-idiotypic antibody (see, e.g., WO2018/023100) at 37 °C for a period of seven days. During this seven-day period, engineered CAR T cells were concurrently treated with Compound 17(0.1-1000 nM) or a vehicle control added at day 0.
Stimulated CAR T cells were then re-challenged with CD19-expressing tumor cells or tumor spheroids in the absence of Compound 17, and cytolytic activity and cytokine production were assessed.
To assess cytolytic function, the stimulated CAR-T cell composition was co-cultured with various CD19-expressing lymphoma cells at a 2.5:1 effector:target ratio. The tumor cells were engineered to express NucLight Red (NLR) and tumor cell number was monitored by Incucyte®. […] Duplicate values for cell compositions manufactured from the two different healthy donors are shown.
Supernatant was collected after 48 hours from the above co-cultures of chronically stimulated CAR-expressing T cells and CD19-expressing tumor cells. Cytokine production was measured from the supernatant by meso scale discovery (MSD) analysis of the collected cell supernatants. […]

Experiment [4] has as its system HPV-expressing CaSki cells. Briefly: Rescue treatment: cytolytic function of chronically stimulated eTCR T cells. As to conditions: 100 nM, 2.5:1 effector:target, 10 or 20 μg/mL anti-Vbeta chronic stimulation. The format is cell-based, human. The source says: Primary human CD4+ and CD8+ T cells were isolated from healthy donors by immunoaffinity-based methods. The isolated CD4+ and CD8+ T cells were combined and stimulated with an anti-CD3/anti-CD28 reagent, and then were transduced with a lentiviral vector encoding an anti-human papillomavirus 16 (anti-HPV16) eTCR. The nucleotide sequences encoding the beta chain and the alpha chain of the eTCR were separated by a sequence encoding a 2A ribosome skip element. Following transduction, the cells were cultured in media containing human serum and cytokines for 9-10 days prior to further assessment.
To assess the effects of rescue treatment with Compound 17 on cytolytic function, eTCR cells were stimulated for six days using 10 μg/mL or 20 μg/mL plate-bound antibody against the TCR Vbeta chain in the absence of Compound 17.
Following chronic stimulation, the eTCR-T cells were co-cultured with HPV-expressing CaSki cells at a 2.5:1 effector:target ratio in the presence of Compound 17 at 100 nM. As a control, chronically stimulated eTCR cells were co-cultured with CaSki cells in the absence of Compound 17. The CaSki cells were transduced with NucLight Red (NLR) and tumor cell number was monitored by Incucyte®.

Experiment [5] concerns CAR-expressing T cells. Description: Chronic stimulation assay, rescue treatment: tumor cell numbers, spheroid volume and cytokines during re-challenge of chronically stimulated CAR-expressing T cells (FIGS. 7A-8B). The experiment is classed as cell-based, human. The source says: FIGS. 7A-7B and 8A-8B show cytolytic activity and cytokine production during re-challenge in the presence of Compound 17 of chronically stimulated CAR-expressing T cells (rescue treatment).
These observations were made using a chronic stimulation assay to render T cells (e.g. CAR T cells) hypofunctional (e.g. reduced cytolysis and IL-2 secretion). Using this model, engineered T cells (e.g. CAR T cells or eTCR T cells) were examined to assess impact of DGKi, such as Compound 17, on function of the engineered T cells when present during (concurrent) or following (rescue) exposure to conditions leading to a hypofunctional, exhaustive state.

Experiment [6] deals with Raji-rFluc cells. Briefly: In vivo anti-tumor effect with lower CAR T cell dose, Raji-rFluc NSG mice (Example 7). How it is done: The in vivo anti-tumor effects of a continuous Compound 17 dosing regimen in combination with a lower dose of CD19-directed CAR T cells were assessed.
These doses of CAR-expressing T cells were not expected to achieve complete tumor rejection.

Where [7] appears, read: 0.3 mg/kg oral once daily Days 1-30 with 1×10^6 CAR T cells, vs CAR T cells or Compound 17 alone.
[8] abbreviates: 0.3 or 0.6 mg/kg oral once daily Days 1-30 with 0.5×10^6 or 1×10^6 CAR T cells, vs CAR T cells alone.

As for `CC[C@H]1CN([C@@H](CC)c2ccc(C(F)(F)F)cc2)[C@H](CC)CN1c1nc(=O)n(C)c2ccc(C#N)nc12` [Compound 17, 4-((2S,5R)-2,5-diethyl-4-((S)-1-(4-(trifluoromethyl)phenyl)propyl)piperazin-1-yl)-1-methyl-2-oxo-1,2-dihydropyrido[3,2-d]pyrimidine-6-carbonitrile], the half-maximal effective concentration (EC50) (as a rule, the concentration needed to bring the measured effect to its halfway point) in experiment [1] stood at 20 nM. Further, the “CAR T cell expansion and/or persistence” value in experiment [2] (0.3 mg/kg oral once daily Days 1-30 following CAR T cells) was “increased CAR T cell expansion and/or persistence”; in experiment [6] (0.3 or 0.6 mg/kg oral once daily Days 1-30, all groups) it was “increased CAR T cell expansion and/or persistence in all groups”. For the same molecule, the survival entry is “improved survival” in experiment [2] (setting [7]) and “improved survival in all groups” in experiment [6] (setting [8]). The tumor burden result in experiment [2] (setting [7]) and in experiment [6] (setting [8]) was “lowered tumor burden” in each case. The “tumor suppression (tumor control index)” value in experiment [2] (0.3 mg/kg with CAR T cells, vs CAR T cells alone) was “enhanced tumor suppression”; in experiment [6] (setting [8]), “enhanced tumor suppression in all groups”. Moreover, the “tumor burden vs historical CAR T cell data” value in experiment [2] (0.3 mg/kg with CAR T cells, vs separate previous experiments without Compound 17) was “lower tumor burden than the mice in the separate previous experiments”. For the same molecule, in experiment [2] (0.3 or 0.6 mg/kg oral once daily Days 1-30, without CAR T cells), the single-agent effects result is “No single-agent effects of Compound 17 were observed”. Besides, the “production of IFNγ, IL-2 and TNFα” value in experiment [3] is on record as “dose-dependent increase in production of all three cytokines”. In experiment [4], the “cytolytic function of chronically stimulated eTCR cells” value was “able to improve cytolytic function of chronically stimulated eTCR cells”. Besides, the “recovery of activity of exhausted T cells” value in experiment [5] (chronically stimulated T cells exhibiting features of exhaustion) is “able to recover activity or have their activity restored or partially restored”. The “rescue of T cell function of exhausted T cells” value in experiment [5] (rescue treatment, later exposure) was “could rescue or restore T cell function, including cytokine production and cytolytic activity, of exhausted T cells”. The “CAR T cell expansion, lower CAR T cell dose” value in experiment [6] (0.5×10^6 CAR T cells + 0.3 mg/kg, relative to higher CAR T cell dose in combination with Compound 17) is given as “CAR T cell expansion was delayed”. The “circulating CAR T cell counts, lower CAR T cell dose” value in experiment [6] (0.5×10^6 CAR T cells + 0.3 mg/kg, vs higher CAR T cell dose alone) is recorded as “later exceeded circulating CAR T cell counts for the group that received the higher CAR T cell dose alone”.
